Measured values from PubChem BioAssay (NCI).
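Grown in 96-well plates, cells were treated for 48 hours with each compound at five concentrations. Insufficient inhibition: endpoint recorded as highest concentration tested. Abbreviation: GI50, concentration required for 50% inhibition of growth. At the TGI there is no net growth.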

Experiments:
Experiment in all cases: NCI tumour cell line growth inhibition, 48 h
U251 CNS = tested on: U251 CNS
ACHN renal = tested on: ACHN renal
M14 melanoma = tested on: M14 melanoma
HOP-92 NSCLC = tested on: HOP-92 NSCLC
HT29 colon = tested on: HT29 colon
UACC-257 melanoma = tested on: UACC-257 melanoma
BT-549 breast = tested on: BT-549 breast
RPMI-8226 leukemia = tested on: RPMI-8226 leukemia
SF-539 CNS = tested on: SF-539 CNS
HS 578T breast = tested on: HS 578T breast

SMILES | TGI (U251 CNS) | TGI (ACHN renal) | TGI (M14 melanoma) | TGI (HOP-92 NSCLC) | TGI (HT29 colon) | TGI (UACC-257 melanoma) | TGI (BT-549 breast) | TGI (RPMI-8226 leukemia) | TGI (SF-539 CNS) | TGI (HS 578T breast) | GI50 (ACHN renal) | GI50 (M14 melanoma) | GI50 (HOP-92 NSCLC) | GI50 (SF-539 CNS) | GI50 (HS 578T breast) | GI50 (UACC-257 melanoma) | GI50 (BT-549 breast) | GI50 (U251 CNS) | GI50 (HT29 colon) | GI50 (RPMI-8226 leukemia)
O=C(O)c1cc(=O)[nH]c(SCc2ccccc2)n1 | > 100 µM | > 100 µM | > 100 µM | > 100 µM | > 100 µM | > 100 µM | > 100 µM | – | – | – | – | – | – | – | – | – | – | – | – | –
C=CCc1cc(-c2cc(CC=C)c(O)c(CNC)c2)cc(CNC)c1O | 28.4 µM | 31.7 µM | 30.5 µM | 23.3 µM | 29.1 µM | 29.9 µM | – | 50.6 µM | – | – | – | – | – | – | – | – | – | – | – | –
CSc1nc(NC2OCC(OC(C)=O)C(OC(C)=O)C2OC(C)=O)c(N=C(C)C(C)=O)c(=O)[nH]1 (centres undefined) | > 100 µM | > 100 µM | > 100 µM | > 100 µM | > 100 µM | > 100 µM | – | > 100 µM | > 100 µM | – | – | – | – | – | – | – | – | – | – | –
O=Cc1cc([N+](=O)[O-])no1 | > 100 µM | – | 35.6 µM | > 100 µM | 61.6 µM | 90.7 µM | > 100 µM | > 100 µM | – | > 100 µM | – | – | – | – | – | – | – | – | – | –
O=C(C[C@H](NC(=O)OCc1ccccc1)C(=O)NC1Cc2ccccc2OC1=O)OCc1ccccc1 (some centres undefined) | > 100 µM | – | > 100 µM | > 100 µM | – | – | > 100 µM | > 100 µM | – | > 100 µM | – | – | – | – | – | – | – | – | – | –
Cc1nc2c(n1C)C(=O)c1nc(CBr)[nH]c(=O)c1C2=O | > 100 µM | > 100 µM | > 100 µM | > 100 µM | > 100 µM | – | – | > 100 µM | > 100 µM | – | – | – | – | – | – | – | – | – | – | –
CCCCCCCCCCCCCCCc1ccc(OCC(O)CO)cc1 (centres undefined) | 55.9 µM | > 100 µM | 33.4 µM | 47.8 µM | 46.1 µM | > 100 µM | – | 53.2 µM | > 100 µM | – | – | – | – | – | – | – | – | – | – | –
CN(C)c1nc(N(C)C)nc(N(C)CN(C)c2ccc(Cl)cc2)n1 | > 100 µM | > 100 µM | – | – | > 100 µM | > 100 µM | – | – | > 100 µM | – | – | – | – | – | – | – | – | – | – | –
CS(=O)(=O)OC1CN2CCC1CC2 (centres undefined) | > 100 µM | > 100 µM | > 100 µM | > 100 µM | > 100 µM | > 100 µM | > 100 µM | > 100 µM | – | > 100 µM | – | – | – | – | – | – | – | – | – | –
CCN(CC)CCCC(C)Nc1ccnc2cc3ccccc3cc12 (centres undefined) | 42.1 µM | 21 µM | > 100 µM | > 100 µM | – | 46.1 µM | 29.2 µM | > 100 µM | > 100 µM | > 100 µM | – | – | – | – | – | – | – | – | – | –
COc1ccc(C2CC(c3cccc(Nc4ccncc4)c3)=NN2c2ccc(Cl)cc2)cc1 (centres undefined) | – | 2.9 µM | 3.24 µM | 2.44 µM | – | 3.87 µM | 4 µM | – | 3.03 µM | 3.68 µM | 1560 nM | 1610 nM | 1120 nM | 1630 nM | 1770 nM | 1950 nM | 1920 nM | – | – | –
CCN1C=C/C(=C\C=C/c2cc[n+](CC)c3ccccc23)c2ccccc21 | 13 µM | 33.8 µM | 16.9 µM | 37.5 µM | 13.8 µM | 9.76 µM | 51.2 µM | 12 µM | 9.08 µM | 24.6 µM | – | – | – | – | – | – | – | – | – | –
CC(C)CCC[C@@H](C)[C@H]1CC[C@H]2[C@@H]3CC[C@H]4C[C@H](N)CC[C@]4(C)[C@H]3CC[C@]12C | 43.8 µM | 36.2 µM | 38.5 µM | 34.6 µM | 54.3 µM | 41.6 µM | 67.6 µM | > 100 µM | – | 76.3 µM | – | – | – | – | – | – | – | – | – | –
Nc1cc2c(nnn2C2OC(COCc3ccccc3)C(OCc3ccccc3)C2OCc2ccccc2)c(=O)[nH]1 (centres undefined) | > 100 µM | > 100 µM | 64.4 µM | > 100 µM | 41.8 µM | 58.6 µM | 90.3 µM | – | 69.5 µM | > 100 µM | – | – | – | – | – | – | – | – | – | –
c1ccc(C2CC(c3cccc(Nc4ccncc4)c3)=NN2c2ccccc2)cc1 (centres undefined) | 3.94 µM | 3.05 µM | 3.39 µM | 2.95 µM | 3.49 µM | 4.15 µM | 3.87 µM | – | 3.12 µM | 3.47 µM | 1690 nM | 1690 nM | 1450 nM | 1710 nM | 1550 nM | 1940 nM | 1880 nM | 1.87 µM | 1.69 µM | –
CC(C)(C)OC(=O)NCC(=O)NC1c2ccsc2/C(=N/O)[C@H]1O (some centres undefined) | > 100 µM | – | > 100 µM | > 100 µM | > 100 µM | > 100 µM | > 100 µM | – | > 100 µM | – | – | – | – | – | – | – | – | – | – | –
CCCCCCNC(=O)c1cc(CCc2cc(O)ccc2O)ccc1O | 5.58 µM | 7.68 µM | 18.4 µM | 3.87 µM | 64.7 µM | 6.26 µM | 4.35 µM | – | 5.31 µM | 26.4 µM | – | – | – | 2180 nM | – | – | – | – | – | –
COc1ccc2c(c1)CCN=C2Cc1cc(OC)c(OC)cc1CCCl | > 100 µM | > 100 µM | > 100 µM | > 100 µM | > 100 µM | > 100 µM | > 100 µM | > 100 µM | 65.7 µM | 81.7 µM | – | – | – | – | – | – | – | – | – | –
Cc1ccc(NP(=O)(Oc2ccccc2)N(CCCl)CCCl)cc1 (centres undefined) | > 100 µM | > 100 µM | > 100 µM | > 100 µM | > 100 µM | > 100 µM | – | > 100 µM | > 100 µM | – | – | – | – | – | – | – | – | – | – | –
CN(c1cc2ncc(=O)[nH]c2cc1NC(N)=NCc1ccc(Cl)cc1)C1CCCCC1 | 13.4 µM | 14.2 µM | 14.9 µM | 5.95 µM | 14.1 µM | 19.2 µM | 14.6 µM | 13.4 µM | 14.6 µM | 16 µM | 7120 nM | 7360 nM | 793 nM | 7680 nM | 6530 nM | 9770 nM | 7400 nM | 5.96 µM | 5.03 µM | 3.54 µM
CC(=O)Oc1c(C)c2c(O)c3c1C1=C(OCOC1=C(C)C3=O)/C(C)=C\C(C)(O)C(O)C(C)C(O)C1C(=O)OC(C(C)C1O)C(C)(O)/C=C/C=C(C)C(=O)N2 (centres undefined) | > 100 µM | > 100 µM | > 100 µM | > 100 µM | > 100 µM | > 100 µM | > 100 µM | > 100 µM | 46.8 µM | > 100 µM | – | – | – | – | – | – | – | – | – | –
